Assay results published in patent US20250289879A1, “THERAPEUTIC MODULATION OF GENES IN MYELOID LINEAGE CELLS AND USES THEREOF IN OPHTHALMOLOGY” (The Children's Medical Center Corporation, priority 2022, published 2025).

Key:
[1] = test system: OIR mice; test: Oxygen-induced retinopathy (OIR) mouse model, NV and VO areas on retinal flat mounts; format: in vivo
Procedure: OIR was carried out using neonatal mice as described previously (Smith et al., 1994). Briefly, mouse pups with nursing female mice were exposed to 75% oxygen from postnatal day (P) 7 to 12, then returned to room air until to P17 for phenotypical analysis and gene expression at indicated time. For phenotypical analysis, the retinas were collected at P17, dissected, and stained with fluorescent dye conjugated-Griffonia Simplicifolia Isolectin IB4 (Invitrogen) overnight and flat-mounted. The avascular (vasoobliteration, VO) and pathological neovascularization (NV) areas were quantified (Connor et al., 2009) by masked researchers using Image J (National Institutes of Health, imagej.nih.gov/ij/) and Adobe Photoshop (Adobe Systems). The exclusion criteria for the OIR mouse model was used as described previously. Mice with bodyweight less than 5 grams at P17 were excluded from the study (Stahl et al., 2010).
OIR was carried out using neonatal mice as described previously^81. Briefly, mouse pups with nursing female mice were exposed to 75% oxygen from postnatal day (P) 7 to 12, then returned to room air until P17 for phenotypical analysis and gene expression analysis at indicated times. For phenotypical analysis, the retinas were collected at P17, dissected, and stained with fluorescent dye conjugated with Griffonia Simplicifolia Isolectin IB4 (Invitrogen) overnight and flat-mounted. The avascular (vaso-obliteration, VO) and pathological NV areas were quantified^82 by masked researchers using Image J (National Institutes of Health) and fully automated deep learning segmentation method^83. The exclusion criteria for the OIR mouse model were used as previously described^84.
SOCS3 agonist, naringenin (400 mg/kg/day, gavage) 49, and control reagents were administrated to C57BL/6J OIR mice from P12 to P16. SOCS3 peptidomimetic and negative control (NC) peptides were synthesized and purified as described 74. […] The identity and purity of main products were evaluated by LC-MS and purified compounds were lyophilized and stored at −20° C. until use. […]

[2] = test system: laser-induced CNV mice; settings: previously reported (ref 49), vs control treatment; cited from earlier work
[3] = test system: SOCS3; settings: reported (refs 56, 57, 49); cited from earlier work

Compound: O=C1C[C@@H](c2ccc(O)cc2)Oc2cc(O)cc(O)c21 [naringenin]
- effect on retinal neovascularization (NV), in words ([1]; OIR retinas at P17, vs control treatment): significantly reduced NV
- effect on vaso-obliteration (VO) / blood vessel loss, in words ([1]; OIR retinas, vs control treatment): without influencing VO
- reduction of NV at P17 compared to controls ([1]; naringenin treatment from P12 to P16, 400 mg/kg/day, C57BL/6J OIR mice): about 50%
- effect on laser-induced CNV, in words [2]: significantly suppresses laser-induced CNV
- SOCS3 expression, in words [3]: induces SOCS3 expression
